From patent publication US6221865A, “Inhibitors of protein isoprenyl transferases” (priority 1998, dated 2001)
Structures can show the parent of a compound that is named as a salt. Where two headings read alike, the source gives them in different places. One block for each compound: values may come before it.

Target: T1, protein farnesyltransferase (Rattus norvegicus, UniProt Q02293+Q04631)
T1 construct: The enzyme is purified according to Reiss, Y., et al., Cell, 62: 81-88 (1990), utilizing steps one through three; from tissue; host or cells: rat brain
T1 sequence (Q02293 whole entry, one chain of several): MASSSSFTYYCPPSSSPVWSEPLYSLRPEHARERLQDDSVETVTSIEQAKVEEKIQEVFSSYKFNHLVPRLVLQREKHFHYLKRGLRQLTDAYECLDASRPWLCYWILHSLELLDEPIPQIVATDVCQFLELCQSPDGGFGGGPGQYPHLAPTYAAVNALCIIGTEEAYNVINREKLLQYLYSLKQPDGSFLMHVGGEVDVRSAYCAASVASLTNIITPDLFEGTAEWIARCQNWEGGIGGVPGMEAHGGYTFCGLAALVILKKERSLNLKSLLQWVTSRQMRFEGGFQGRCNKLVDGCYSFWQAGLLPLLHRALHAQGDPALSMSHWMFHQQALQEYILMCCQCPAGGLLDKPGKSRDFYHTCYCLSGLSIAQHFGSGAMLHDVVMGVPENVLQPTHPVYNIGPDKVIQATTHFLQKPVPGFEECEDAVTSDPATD
Assay: Inhibition of farnesyltransferase (scintillation proximity assay, rat brain enzyme, biotin-K Ras B fragment substrate)
Type: biochemical
Details: for inhibition at 1 µM: read-out: % inhibition of farnesyltransferase at 1 × 10^-6 M; for inhibition at 1 µM / % inhibition of farnesyltransferase at 1 × 10^-6 M: 1 × 10^-6 M (Table 2); for % inhibition of farnesyltransferase at 1 × 10^-5 M: 1 × 10^-5 M (Table 1)
Method in brief: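 Enzyme from rat brain, partly purified (steps one to three), assayed by SPA kit using 0.1 mM final biotin-K Ras B peptide as prenyl acceptor rather than biotin-lamin. Activity given as percent inhibition.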

[1] = read-out: % inhibition at 0.1 μM (*), Table 6, * = 0.1 μM (footnote), title prints 0.1 mM
[2] = read-out: % inhibition at 0.01 μM (**), Table 6, ** = 0.01 μM (footnote), title prints 0.01 mM

Compound: COC1CC(COCc2ccccc2)N(Cc2ccc(C(=O)N[C@@H](CCSC)C(=O)O)c(-c3ccccc3C)c2)C1 (stereo partly drawn) [Example 1121, N-[4-(2-benzyloxymethyl-4-methoxypyrrolidin-1-ylmethyl)-2-(2-methylphenyl)benzoyl]methionine]
inhibition at 0.1 µM [1]: 72%

Compound: CSCC[C@H](NC(=O)c1ccc(COCc2cncs2)cc1-c1ccccc1C)C(=O)[O-].[Li+] [Example 539]
% inhibition of farnesyltransferase at 1 × 10^-7 M (1 × 10^-7 M (Table 3)): 89%

Compound: CSCC[C@H](NC(=O)c1ccc(CN(C(C)C)C2(CC3CCCCC3)CC2)cc1-c1ccccc1C)C(=O)O [Example 326]
inhibition at 1 µM: 91%

Compound: CCSCC(CC1CCCCC1)NCc1cc(-c2ccccc2C)c(C(=O)N[C@@H](CCSC)C(=O)O)cc1OC (stereo partly drawn) [Example 1337]
% inhibition at 0.01 μM (**) (Table 6, ** = 0.01 μM (footnote), title prints 0.01 mM): 83%

Compound: CSCC[C@H](NC(=O)c1ccc(CCc2cccc(Oc3ccccc3)c2)cc1-c1ccccc1C)C(=O)O [Example 459, N-[4-(2-(3-phenoxyphenyl)ethyl)-2-(2-methylphenyl)benzoyl]methionine lithium salt]
inhibition at 0.1 µM (read-out: % inhibition of farnesyltransferase at 1 × 10^-7 M, 1 × 10^-7 M (Table 3)): 92%

Compound: CSCC[C@H](NC(=O)c1ccc(NC(=O)C2CCC(=O)N2)cc1-c1ccccc1)C(=O)O (stereo partly drawn) [Example 202]
% inhibition of farnesyltransferase at 1 × 10^-6 M: 31%

Compound: COc1ccc(COCc2ccc(C(=O)N[C@@H](CCSC)C(=O)[O-])c(-c3ccccc3C)c2)cc1.[Li+] [Example 935]
% inhibition of farnesyltransferase at 1 × 10^-7 M (1 × 10^-7 M (Table 3)): 72%

Compound: CSCC[C@H](NC(=O)c1ccc(CNc2ccc(N3CCCCC3)cc2)cc1-c1ccccc1)C(=O)O [Example 697]
% inhibition of farnesyltransferase at 1 × 10^-6 M: 39%

Compound: CSCC[C@H](NC(=O)c1ccc(CCc2cccc3ccccc23)cc1-c1ccccc1C)C(=O)O [Example 467, N-[4-(2-naphth-1-ylethyl)-2-(2-methylphenyl)benzoyl]methionine lithium salt]
inhibition at 1 µM: 97%

Compound: CCCCN(Cc1cc(F)cc(F)c1)OCc1ccc(C(=O)N[C@@H](CCSC)C(=O)O)c(-c2ccccc2C)c1 [Example 1176, N-[4-N-Butyl-N-(3,5-difluorobenzyl)aminooxymethyl-2-(2-methylphenyl)benzoyl]methionine lithium salt]
inhibition at 0.1 µM [1]: 97%

Compound: CSCC[C@H](NC(=O)c1ccc(COCc2ccc(C)cc2)cc1-c1ccccc1C)C(=O)[O-].[Li+] [Example 579]
% inhibition of farnesyltransferase at 1 × 10^-7 M (1 × 10^-7 M (Table 3)): 92%

Compound: COc1ccc(NCc2ccc(C(=O)N[C@@H](CCSC)C(=O)O)c(-c3ccccc3)c2)cc1 [Example 690]
% inhibition of farnesyltransferase at 1 × 10^-5 M: 61%

Compound: CSCC[C@H](NC(=O)c1ccc(CN(Cc2ccccc2)c2ccccc2SC)cc1-c1ccccc1C)C(=O)[O-].[Li+] [Example 850]
% inhibition of farnesyltransferase at 1 × 10^-6 M: 90%

Compound: CSCC[C@H](NC(=O)c1ccc(COCc2ccccc2C(C)C)cc1-c1ccccc1C)C(=O)[O-].[Li+] [Example 938]
% inhibition of farnesyltransferase at 1 × 10^-8 M (1 × 10^-8 M (Table 4)): 61%

Compound: CSCC[C@H](NC(=O)c1ccc(COCc2cnc(-c3cccc(Cl)c3)o2)cc1-c1ccccc1C)C(=O)[O-].[Li+] [Example 893]
% inhibition of farnesyltransferase at 1 × 10^-7 M (1 × 10^-7 M (Table 3)): 87%

Compound: CSCC[C@H](NC(=O)c1ccc(OCCCc2ccccc2)cc1-c1ccccc1C)C(=O)[O-].[Li+] [Example 879]
% inhibition of farnesyltransferase at 1 × 10^-6 M: 95%

Compound: CCCCN(CC1CCCCC1)OCc1ccc(C(=O)N[C@@H](CCSC)C(=O)O)c(-c2ccccc2C)c1 [Example 1186]
inhibition at 0.01 µM [2]: 93%

Compound: CSCC[C@H](NC(=O)c1ccc(CNC(CC2CCCCC2)C(O)C(O)CC(C)C)cc1-c1ccccc1C)C(=O)O (stereo partly drawn) [Example 528]
% inhibition of farnesyltransferase at 1 × 10^-6 M: 99%

Compound: CSCC[C@H](NC(=O)c1ccc(CCc2ccccc2-c2ccccc2)cc1-c1ccccc1C)C(=O)O [Example 452, N-[4-(2-(2-phenylphenyl)ethyl)-2-(2-methylphenyl)benzoyl]methionine lithium salt]
inhibition at 1 µM: 96%

Compound: CSCC[C@H](NC(=O)c1ccc(COCCc2cccc3ccccc23)cc1-c1ccccc1C)C(=O)[O-].[Li+] [Example 592]
% inhibition of farnesyltransferase at 1 × 10^-7 M (1 × 10^-7 M (Table 3)): 93%

Compound: CSCC[C@H](NC(=O)c1ccc(COCc2ccc(-c3ccc(SC)cc3)o2)cc1-c1ccccc1C)C(=O)[O-].[Li+] [Example 447]
% inhibition of farnesyltransferase at 1 × 10^-7 M (1 × 10^-7 M (Table 3)): 91%

The remaining lines, values ahead:

inhibition at 1 µM: 93%
Compound: CSCC[C@H](NC(=O)c1ccc(C=CCc2ccc3ccccc3c2)cc1-c1ccccc1C)C(=O)O (mixture of isomers) [Example 496, N-[4-(3-naphth-2-ylprop-1-enyl)-2-(2-methylphenyl)benzoyl]methionine lithium salt (1:1 mixture of olefin isomers)]

% inhibition of farnesyltransferase at 1 × 10^-7 M (1 × 10^-7 M (Table 3)): 88%
Compound: CSCC[C@H](NC(=O)c1ccc(COCc2ccc(C)o2)cc1-c1ccccc1C)C(=O)O [Example 532]

inhibition at 1 µM: 48%
Compound: CSCC[C@H](NC(=O)c1ccc(S(=O)(=O)NCCN2CCCCC2)cc1-c1ccccc1C)C(=O)O [Example 774, lithium salt]

% inhibition of farnesyltransferase at 1 × 10^-5 M: 72%
Compound: CSCC[C@H](NC(=O)c1ccc(CNc2ccc3c(c2)CCC3)cc1-c1ccccc1)C(=O)O [Example 705]

inhibition at 0.01 µM [2]: 92%
Compound: CSCC[C@H](NC(=O)c1ccc(CP(=O)(CC2CCCCC2)CC2CCCCC2)cc1-c1ccccc1C)C(=O)O [Example 1214, N-[4-(Di(cylohexylmethyl)(oxophosphinyl)methyl)-2-(2-methylphenyl)benzoyl]methionine]

% inhibition of farnesyltransferase at 1 × 10^-6 M: 92%
Compound: CSCC[C@H](NC(=O)c1ccc(OCCC23CC4CC(CC(C4)C2)C3)cc1-c1ccccc1C)C(=O)O [Example 553]

% inhibition of farnesyltransferase at 1 × 10^-6 M: 98%
Compound: CSCC[C@H](NC(=O)c1ccc(COCCC23CC4CC(CC(C4)C2)C3)cc1-c1ccccc1C)C(=O)O [Example 404]

inhibition at 0.01 µM [2]: 79%
Compound: CCCCP(=O)(Cc1ccc(C(=O)N[C@@H](CCSC)C(=O)O)c(-c2ccccc2C)c1)CC1CCCCC1 (stereo partly drawn) [Example 1213, N-[4-((Cylohexylmethyl)butyl(oxophosphinyl)methyl)-2-(2-methylphenyl)benzoyl]methionine]

% inhibition of farnesyltransferase at 1 × 10^-6 M: 53%
Compound: CSCC[C@H](NC(=O)c1ccc(CNc2ccc(C(O)(C(F)(F)F)C(F)(F)F)cc2)cc1-c1ccccc1)C(=O)O [Example 693]

% inhibition of farnesyltransferase at 1 × 10^-6 M: 95%
Compound: CSCC[C@H](NC(=O)c1ccc(CN(Cc2ccccc2)c2ccccc2)cc1-c1ccccc1C)C(=O)O [Example 406]

% inhibition of farnesyltransferase at 1 × 10^-7 M (1 × 10^-7 M (Table 3)): 94%
Compound: CCCC[C@H](CC1CCCCC1)NCc1ccc(C(=O)N[C@@H](CCSC)C(=O)O)c(-c2ccccc2C)c1 [Example 615]

inhibition at 0.01 µM [2]: 87%
Compound: CSCC[C@H](NC(=O)c1ccc(Cc2nnnn2Cc2ccccc2)cc1-c1ccccc1C)C(=O)O [Example 1099, N-[4-(1-benzyltetrazol-5-ylmethyl)-2-(2-methylphenyl)benzoyl]methionine]

% inhibition of farnesyltransferase at 1 × 10^-5 M: 40%
Compound: CSCC[C@H](NC(=O)c1ccc(CNC(CO)C(O)c2ccccc2)cc1-c1ccccc1)C(=O)O (stereo partly drawn) [Example 713]

% inhibition of farnesyltransferase at 1 × 10^-8 M (1 × 10^-8 M (Table 4)): 91%
Compound: CSCC[C@H](NC(=O)c1ccc(CN(Cc2ccc3c(c2)OCO3)c2cncnc2)cc1-c1ccccc1C)C(=O)O [Example 837]

% inhibition of farnesyltransferase at 1 × 10^-6 M: 91%
Compound: CSCC[C@H](NC(=O)c1ccc(OC/C=C/c2ccccc2)cc1-c1ccccc1C)C(=O)O [Example 560]

% inhibition of farnesyltransferase at 1 × 10^-7 M (1 × 10^-7 M (Table 3)): 90%
Compound: CSCC[C@H](NC(=O)c1ccc(COCc2cccc(N(C)C)c2)cc1-c1ccccc1C)C(=O)O [Example 941]

% inhibition of farnesyltransferase at 1 × 10^-6 M: 88%
Compound: CSCC[C@H](NC(=O)c1ccc(CS[C@H](CO)Cc2ccccc2)cc1-c1ccccc1)C(=O)O [Example 545]

inhibition at 0.01 µM (read-out: % inhibition of farnesyltransferase at 1 × 10^-8 M, 1 × 10^-8 M (Table 4)): 60%
Compound: CSCC[C@H](NC(=O)c1ccc(/C=C/c2ccc(Oc3cccc(Cl)c3)cc2)cc1-c1ccccc1C)C(=O)O [Example 858, N-[4-(2-(4-(3-chlorophenoxy)phenyl)ethen-1-yl)-2-(2-methylphenyl)benzoyl]methionine]

% inhibition of farnesyltransferase at 1 × 10^-6 M: 31%
Compound: CSCC[C@H](NC(=O)c1ccc(CNc2cccc(C(N)=O)c2)cc1-c1ccccc1)C(=O)O [Example 682]

% inhibition of farnesyltransferase at 1 × 10^-5 M: 69%
Compound: CCn1cc(NCc2ccc(C(=O)N[C@@H](CCSC)C(=O)O)c(-c3ccccc3)c2)c(=O)n1CC [Example 364]

inhibition at 1 µM: 90%
Compound: CSCC[C@H](NC(=O)c1ccc(CN2CCC[C@H]2COCc2ccccc2)cc1-c1ccccc1C)C(=O)O [Example 824, N-[4-(2-benzyloxymethylpyrrolidin-1-ylmethyl)-2-(2-methylphenyl)benzoyl]methionine]

% inhibition of farnesyltransferase at 1 × 10^-8 M (1 × 10^-8 M (Table 4)): 70%
Compound: COc1cccc(CN(Cc2ccc(C(=O)N[C@@H](CCSC)C(=O)O)c(-c3ccccc3C)c2)c2ccccc2)c1 [Example 779]

inhibition at 1 µM: 98%
Compound: CSCC[C@H](NC(=O)c1ccc(CN(C2CC2)C2(Cc3ccccc3)CCC2)cc1-c1ccccc1C)C(=O)O [Example 329]

inhibition at 0.01 µM [2]: 88%
Compound: CSCC[C@H](NC(=O)c1ccc(CN2OCCC2COC2CCCCC2)cc1-c1ccccc1C)C(=O)O (stereo partly drawn) [Example 1130, N-[4-(3-cyclohexyloxymethylisoxazolidin-2-ylmethyl)-2-(2-methylphenyl)benzoyl]methionine]

% inhibition of farnesyltransferase at 1 × 10^-6 M: 93%
Compound: CSCC[C@H](NC(=O)c1ccc(OCCCCOc2ccccc2)cc1-c1ccccc1C)C(=O)O [Example 568]

% inhibition of farnesyltransferase at 1 × 10^-8 M (1 × 10^-8 M (Table 4)): > 50%
Compound: CSCC[C@H](NC(=O)c1ccc(NC[C@H]2NCC[C@H]2S)cc1-c1ccccc1)C(=O)O [Example 960]

inhibition at 0.1 µM [1]: 86%
Compound: CSCC[C@H](NC(=O)c1ccc(Cc2nnn(Cc3ccccc3)n2)cc1-c1ccccc1C)C(=O)O [Example 1101, N-[4-(2-benzyltetrazol-5-ylmethyl)-2-(2-methylphenyl)benzoyl]methionine]
